Laboratory results as given in patent US20130210061A1, “Method of Screening Damp-Dry Malodor Inhibitor and Method of Evaluating Damp-Dry Malodor Inhibitor” (KAO CORPORATION, priority 2010, published 2013).
Read-outs that look alike come from different tables or passages of the source.

Experiments:
Experiment in all cases: Example 1: quantification of 4M3H on cotton fabric with 14-methylhexadecanoic acid
M. osloensis NCIMB10693 = type: cell-based, Moraxella osloensis
Experimental: (§1) 10 mL of methanol was added to the towel that had been left to stand still for 24 hours, and 1 mL of the methanol was mixed with 1 mL of ADAM (9-anthrydiazomethanene, manufactured by Funakoshi Corp., 0.1 w/v %). The mixture was left to stand for 60 minutes at room temperature, and thus derivatization was carried out.
(§2) Thereafter, 10 μL of the solution was analyzed by using LC-FL (liquid chromatography apparatus: HITACHI ELITE LaChrom (trade name, manufactured by Hitachi, Ltd.), column: Lichrosphere 100 RP-8(e) (trade name, manufactured by Agilent Technologies, Inc., 5 μm×125 mm×4 mmφ), column temperature: 40° C., eluent a mixed solution of acetonitrile/water=7/3 (volume ratio), flow rate: 1.0 mL/min, detector: excitation wavelength (365 nm), measurement wavelength (412 nm)), and thereby quantification of 4M3H thus produced was carried out. In regard to the amount of production of 4M3H, a sample which produced 4M3H in an amount of more than 1 μg was rated as “[…]”; a sample which produced 4M3H in an amount of more than 0.1 μg and 1 μg or less was rated as “∘”; a sample which produced 4M3H in an amount of more than 0 μg and 0.1 μg or less was rated as “Δ”; and a sample in which no 4M3H was detected was rated as “x”.
(§3) One platinum loop of each of Moraxella osloensis NCIMB10693, Moraxella sp. 4-1, Psychrobacter pacificensis NBRC103191, Psychrobacter glacincola NCIMB101053, Pseudomonas alcaligenes No. 41, Acinetobacter calcoaceticus HH2BD-49, Saccaromyces cerevisiae NBRC1661, Rhodotorula mucilaginosa NBRC0909 and Rhodotorula slooffiae 13c was inoculated into 5 mL of a SCD liquid medium (manufactured by Nihon Pharmaceutical Co., Ltd.), and the microbial cells were subjected to shaking culture (160 rpm) at 35° C. for 24 hours. The microbial cells obtained after culture were centrifuged (8000×g, 10 minutes), the supernatant was removed, and then the microbial cells were suspended in 5 mL of physiological saline. The suspension was centrifuged again (8000×g, 10 minutes), subsequently the supernatant was removed, and a microbial suspension was prepared by using physiological saline such that the OD600 would be 0.1.
(§4) Furthermore, 0.1 mL each of 10-ppm or 100-ppm aqueous solutions of the compounds shown in the following Table 6 was applied on the fabric described above. As a control, a fabric on which sterilized water was applied instead of the compounds described below was also prepared.
(§5) On a plain-woven cotton fabric prepared as described above, 0.1 mL each of the various microbial suspensions was inoculated, and the samples were left to stand still under humidified conditions at 37° C. for 24 hours and were subjected to an evaluation such as described below.
(§6) Quantification of 4M3H was carried out by the same method as that used in Test Example 3, and by taking as a reference the 4M3H production amount of a sample on which sterilized water was applied as a test substance, the 4M3H production amounts in the case of applying other test substances were evaluated on the basis of the following criteria. • A: (4M3H production amount in the case of applying a test substance)<( 1/100 of the 4M3H production amount in the case of applying sterilized water) • B: ( 1/100 of the 4M3H production amount in the case of applying sterilized water)≦(4M3H production amount in the case of applying a test substance)<( 1/10 of the 4M3H production amount in the case of applying sterilized water) • C: ( 1/10 of the 4M3H production amount in the case of applying sterilized water)≦(4M3H production amount in the case of applying a test substance)<(4M3H production amount in the case of applying sterilized water) • D: (4M3H production amount in the case of applying sterilized water)≦(4M3H production amount in the case of applying a test substance)

Moraxella sp. 4-1 = type: cell-based; conditions: 37° C., 24 hours, vs sterilized water
Experimental: as §1, §2, §3, §4, §5, §6

[1] = test system: P. pacificensis NBRC103191; type: cell-based, Psychrobacter pacificensis; conditions: 37° C., 24 hours, vs sterilized water
Experimental: as §1, §2, §3, §4, §5, §6

P. glacincola NBRC101053 = type: cell-based, Psychrobacter glacincola; conditions: 37° C., 24 hours, vs sterilized water
Experimental: as §1, §2, §3, §4, §5, §6

P. alcaligenes No. 41 = type: cell-based, Pseudomonas alcaligenes; conditions: 37° C., 24 hours, vs sterilized water
Experimental: as §1, §2, §3, §4, §5, §6

[2] = test system: A. calcoaceticus HH2BD-49; type: cell-based, Acinetobacter calcoaceticus; conditions: 37° C., 24 hours, vs sterilized water
Experimental: as §1, §2, §3, §4, §5, §6

S. cerevisiae NBRC1661 = type: cell-based, Saccaromyces cerevisiae; conditions: 37° C., 24 hours, vs sterilized water
Experimental: as §1, §2, §3, §4, §5, §6

R. muculaginosa NBRC0909 = type: cell-based, Rhodotorula mucilaginosa; conditions: 37° C., 24 hours, vs sterilized water
Experimental: as §1, §2, §3, §4, §5, §6

R. slooffiae 13c = type: cell-based, Rhodotorula slooffiae; conditions: 37° C., 24 hours, vs sterilized water
Experimental: as §1, §2, §3, §4, §5, §6

[3] = 10 ppm test substance, M. osloensis NCIMB10693, cotton fabric with 14-methylhexadecanoic acid, 37° C., 24 hours, vs sterilized water
[4] = 100 ppm test substance, M. osloensis NCIMB10693, cotton fabric with 14-methylhexadecanoic acid, 37° C., 24 hours, vs sterilized water
[5] = Faucicola osloensis, NCIMB10693, 24 h, read-out: Production amount of 4M3H
[6] = Faucicola osloensis, 100 ppm test substance, M. osloensis NCIMB10693, cotton fabric with 14-methylhexadecanoic acid, 37° C., 24 hours, vs sterilized water, read-out: Production amount of 4M3H

CN(C)c1ccc(/C([S-])=C(/[S-])c2ccccc2)cc1.CN(C)c1ccc(/C([S-])=C(/[S-])c2ccccc2)cc1.[Ni] [Bis(4-dimethylaminodithiobenzil)nickel]
Production amount of 4M3H (M. osloensis NCIMB10693; [3]): C (( 1/10 of the 4M3H production amount in the case of applying sterilized water)≦(4M3H production amount in the case of applying a test substance)<(4M3H production amount in the case of applying sterilized water)) | Production amount of 4M3H (M. osloensis NCIMB10693; [4]): A ((4M3H production amount in the case of applying a test substance)<( 1/100 of the 4M3H production amount in the case of applying sterilized water)) | Production amount of 4M3H (Moraxella sp. 4-1; 10 ppm test substance): B (( 1/100 of the 4M3H production amount in the case of applying sterilized water)≦(4M3H production amount in the case of applying a test substance)<( 1/10 of the 4M3H production amount in the case of applying sterilized water)) | Production amount of 4M3H (Moraxella sp. 4-1; 100 ppm test substance): A ((4M3H production amount in the case of applying a test substance)<( 1/100 of the 4M3H production amount in the case of applying sterilized water)) | Production amount of 4M3H ([1]; 10 ppm test substance): C (( 1/10 of the 4M3H production amount in the case of applying sterilized water)≦(4M3H production amount in the case of applying a test substance)<(4M3H production amount in the case of applying sterilized water)) | Production amount of 4M3H ([1]; 100 ppm test substance): B (( 1/100 of the 4M3H production amount in the case of applying sterilized water)≦(4M3H production amount in the case of applying a test substance)<( 1/10 of the 4M3H production amount in the case of applying sterilized water)) | Production amount of 4M3H (P. glacincola NBRC101053; 10 ppm test substance): A ((4M3H production amount in the case of applying a test substance)<( 1/100 of the 4M3H production amount in the case of applying sterilized water)) | Production amount of 4M3H (P. glacincola NBRC101053; 100 ppm test substance): A ((4M3H production amount in the case of applying a test substance)<( 1/100 of the 4M3H production amount in the case of applying sterilized water)) | Production amount of 4M3H (P. alcaligenes No. 41; 10 ppm test substance): C (( 1/10 of the 4M3H production amount in the case of applying sterilized water)≦(4M3H production amount in the case of applying a test substance)<(4M3H production amount in the case of applying sterilized water)) | Production amount of 4M3H (P. alcaligenes No. 41; 100 ppm test substance): A ((4M3H production amount in the case of applying a test substance)<( 1/100 of the 4M3H production amount in the case of applying sterilized water)) | Production amount of 4M3H ([2]; 10 ppm test substance): B (( 1/100 of the 4M3H production amount in the case of applying sterilized water)≦(4M3H production amount in the case of applying a test substance)<( 1/10 of the 4M3H production amount in the case of applying sterilized water)) | Production amount of 4M3H ([2]; 100 ppm test substance): A ((4M3H production amount in the case of applying a test substance)<( 1/100 of the 4M3H production amount in the case of applying sterilized water)) | Production amount of 4M3H (S. cerevisiae NBRC1661; 10 ppm test substance): C (( 1/10 of the 4M3H production amount in the case of applying sterilized water)≦(4M3H production amount in the case of applying a test substance)<(4M3H production amount in the case of applying sterilized water)) | Production amount of 4M3H (S. cerevisiae NBRC1661; 100 ppm test substance): A ((4M3H production amount in the case of applying a test substance)<( 1/100 of the 4M3H production amount in the case of applying sterilized water)) | Production amount of 4M3H (R. muculaginosa NBRC0909; 10 ppm test substance): B (( 1/100 of the 4M3H production amount in the case of applying sterilized water)≦(4M3H production amount in the case of applying a test substance)<( 1/10 of the 4M3H production amount in the case of applying sterilized water)) | Production amount of 4M3H (R. muculaginosa NBRC0909; 100 ppm test substance): A ((4M3H production amount in the case of applying a test substance)<( 1/100 of the 4M3H production amount in the case of applying sterilized water)) | Production amount of 4M3H (R. slooffiae 13c; 10 ppm test substance): C (( 1/10 of the 4M3H production amount in the case of applying sterilized water)≦(4M3H production amount in the case of applying a test substance)<(4M3H production amount in the case of applying sterilized water)) | Production amount of 4M3H (R. slooffiae 13c; 100 ppm test substance): A ((4M3H production amount in the case of applying a test substance)<( 1/100 of the 4M3H production amount in the case of applying sterilized water))

O=C/C=C/c1ccccc1 [Cinnamic aldehyde]
activity at 10 ppm (M. osloensis NCIMB10693; [5]): 10 to 100% | activity at 100 ppm (M. osloensis NCIMB10693; [5]): < 1%

CCCCCCCCCCCC[N+](C)(C)C [Dodecyl trimethyl ammonium chloride]
activity at 100 ppm (M. osloensis NCIMB10693; [5]): 10 to 100%

CCCCCCCCCCCCCCCC[N+](C)(C)C [Hexadecyl trimethyl ammonium chloride]
activity at 100 ppm (M. osloensis NCIMB10693; [5]): > 100%

CCCCC/C=C\C/C=C\CCCCCCCC(=O)O [Linoleic acid]
activity at 100 ppm (M. osloensis NCIMB10693; [6]): 1 to 10%

CC/C=C\C/C=C\C/C=C\CCCCCCCC(=O)O [Linolenic acid]
activity at 100 ppm (M. osloensis NCIMB10693; [6]): 1 to 10%

CCCCCCCCCCCCCCCC(=O)O [Palmitic acid]
activity at 100 ppm (M. osloensis NCIMB10693; [6]): 10 to 100%

CCCCCCCCCCCCCCCCCC(=O)O [Stearic acid]
activity at 100 ppm (M. osloensis NCIMB10693; [6]): 10 to 100%

CCCCCCCCCCCCCC[N+](C)(C)C [Tetradecyl trimethyl ammonium chloride]
activity at 100 ppm (M. osloensis NCIMB10693; [6]): 10 to 100%

Polylysine
Production amount of 4M3H (M. osloensis NCIMB10693; [3]): D ((4M3H production amount in the case of applying sterilized water)≦(4M3H production amount in the case of applying a test substance)) | Production amount of 4M3H (M. osloensis NCIMB10693; [4]): C (( 1/10 of the 4M3H production amount in the case of applying sterilized water)≦(4M3H production amount in the case of applying a test substance)<(4M3H production amount in the case of applying sterilized water))

Polyoxyethylene (10) lauryl ether
Production amount of 4M3H (M. osloensis NCIMB10693; [4]): D ((4M3H production amount in the case of applying sterilized water)≦(4M3H production amount in the case of applying a test substance))

Sodium alkylbenzene sulfonate [Sodium akylbenzene sulfonate]
Production amount of 4M3H (M. osloensis NCIMB10693; [4]): C (( 1/10 of the 4M3H production amount in the case of applying sterilized water)≦(4M3H production amount in the case of applying a test substance)<(4M3H production amount in the case of applying sterilized water))
